SMILES strings stand for the structures.

Usually Kd stands for the equilibrium constant for the complex coming apart.

What all share (test): ITC
Holding throughout (details): 40 mM NaCl, 5 mM MgCl2; 25 mM Tris-HCl pH 7.5, 25 °C; single-site model

Test [1] deals with SAM-VI AP RNA (RNA, riboswitch) CGUAUCAUUGUGCCUUAUCCGCAAAAGGCGGGUAGGGCGAUAAGUCCGAAAGAGGGAUGAUAUG
Test [2] relates to SAM-VI WT RNA (RNA, riboswitch) ACAACAGAAUGAACCAACGUAUCAUUGUGCCUUAUCCGCAAAAGGCGGGUAGGGCGAUAAGUCCGAAAGAGGGAUGAUAUG
In test [3] the test system is SAM-VI M2 RNA (RNA, riboswitch) ACAACAGAAUGAACCAACGUAUCAUUGUGCCUUAUCCGCAAAAGGCGGGUAGGGCGAUAAGUCCGAAAGAGGGAUGAU

For the molecule `C[S+](CC[C@H](N)C(=O)O)C[C@H]1O[C@@H](n2cnc3c(N)ncnc32)[C@H](O)[C@@H]1O` (stereo partly drawn), the affinity is 5.33 µM in test [1] and 8.95 µM in test [2]. Moreover, the Kd in test [3] stood at 419.95 µM.

The values above are taken from article PMC11274715 (2024).
